# According to PMC7181660, “A novel specific PERK activator reduces toxicity and extends survival in Huntington's disease models” (Scientific Reports, 2020):
# Read-outs that look alike come from different tables or passages of the source.
# How the values were obtained:
# Experiment in all cases: biochemical
# Assay type in all cases: biochemical
# [1] = molecular target: panel of 391 kinases (Homo sapiens, UniProt O43353); settings: RIPK2, MK-28 1 µM, ATP 1 µM
# [2] = molecular target: panel of 391 kinases (Homo sapiens, UniProt O96013); settings: PAK4, MK-28 1 µM, ATP 1 µM
# [3] = molecular target: panel of 391 kinases (Homo sapiens, UniProt P04626); settings: ERBB2/HER2, MK-28 1 µM, ATP 1 µM
# [4] = molecular target: panel of 391 kinases (Homo sapiens, UniProt P06493); settings: MK-28 1 µM, ATP 1 µM; for remaining activity at 1 µM: read-out: % Enzyme Activity (relative to DMSO controls)
# [5] = molecular target: panel of 391 kinases (Homo sapiens, UniProt P21802); settings: FGFR2, MK-28 1 µM, ATP 1 µM
# [6] = molecular target: panel of 391 kinases (Homo sapiens, UniProt P27448); settings: MARK3, MK-28 1 µM, ATP 1 µM
# [7] = molecular target: panel of 391 kinases (Homo sapiens, UniProt P51955); settings: NEK2, MK-28 1 µM, ATP 1 µM
# [8] = molecular target: panel of 391 kinases (Homo sapiens, UniProt P51957); settings: NEK4, MK-28 1 µM, ATP 1 µM
# [9] = molecular target: panel of 391 kinases (Homo sapiens, UniProt P53350); settings: PLK1, MK-28 1 µM, ATP 1 µM
# [10] = molecular target: panel of 391 kinases (Homo sapiens, UniProt P68400); settings: CK2a, MK-28 1 µM, ATP 1 µM
# [11] = molecular target: panel of 391 kinases (Homo sapiens, UniProt Q13873); settings: BMPR2, MK-28 1 µM, ATP 1 µM
# [12] = molecular target: panel of 391 kinases (Homo sapiens, UniProt Q14289); settings: PYK2, MK-28 1 µM, ATP 1 µM
# [13] = molecular target: panel of 391 kinases (Homo sapiens, UniProt Q15831); settings: LKB1, MK-28 1 µM, ATP 1 µM
# [14] = molecular target: panel of 391 kinases (Homo sapiens, UniProt Q16620); settings: TRKB, MK-28 1 µM, ATP 1 µM
# [15] = molecular target: panel of 391 kinases (Homo sapiens, UniProt Q96NX5); settings: CAMK1g, MK-28 1 µM, ATP 1 µM
# [16] = molecular target: panel of 391 kinases (Homo sapiens, UniProt Q96PF2); settings: TSSK2, MK-28 1 µM, ATP 1 µM
# [17] = molecular target: panel of 391 kinases (Homo sapiens, UniProt Q96RR4); settings: CAMKK2, MK-28 1 µM, ATP 1 µM
# [18] = molecular target: panel of 391 kinases (Homo sapiens, UniProt Q99759); settings: MEKK3, MK-28 1 µM, ATP 1 µM
# [19] = molecular target: panel of 391 kinases (Homo sapiens, UniProt Q9BWU1); settings: CDK19/cyclin C, MK-28 1 µM, ATP 1 µM
# [20] = molecular target: panel of 391 kinases (Homo sapiens, UniProt Q9H093); settings: SNARK/NUAK2, MK-28 1 µM, ATP 1 µM
# [21] = molecular target: panel of 391 kinases (Homo sapiens, UniProt Q9H2X6); settings: HIPK2, MK-28 1 µM, ATP 1 µM
# [22] = molecular target: panel of 391 kinases (Homo sapiens, UniProt Q9H3Y6); settings: SRMS, MK-28 1 µM, ATP 1 µM
# [23] = molecular target: panel of 391 kinases (Homo sapiens, UniProt Q9H4A3); settings: WNK1, MK-28 1 µM, ATP 1 µM
# [24] = molecular target: panel of 391 kinases (Homo sapiens, UniProt Q9P286); settings: PAK5, MK-28 1 µM, ATP 1 µM
# [25] = molecular target: panel of 391 kinases (Homo sapiens, UniProt Q9Y2U5); settings: MEKK2, MK-28 1 µM, ATP 1 µM
# [26] = molecular target: panel of 391 kinases (Homo sapiens, UniProt Q9Y3S1); settings: WNK2, MK-28 1 µM, ATP 1 µM
# [27] = read-out: % Enzyme Activity (relative to DMSO controls)
smiles,measurement,setting,value
CN(/N=C\c1ccc(O)c(O)c1)c1nc(-c2ccccc2)cc(-c2ccccc2)n1 [MK-28],% Enzyme Activity (relative to DMSO controls),[1],100.79%
same,remaining activity at 1 µM,[1]; [27],102%
same,% Enzyme Activity (relative to DMSO controls),[2],97.48%
same,remaining activity at 1 µM,[2]; [27],97.6%
same,% Enzyme Activity (relative to DMSO controls),[3],98.41%
same,remaining activity at 1 µM,[3]; [27],99.3%
same,% Enzyme Activity (relative to DMSO controls),[4]; CDK1/cyclin A,104.81%
same,remaining activity at 1 µM,[4]; CDK1/cyclin A,105%
same,% Enzyme Activity (relative to DMSO controls),[4]; CDK1/cyclin B,94.54%
same,remaining activity at 1 µM,[4]; CDK1/cyclin B,95%
same,% Enzyme Activity (relative to DMSO controls),[4]; CDK1/cyclin E,97.74%
same,remaining activity at 1 µM,[4]; CDK1/cyclin E,97.8%
same,% Enzyme Activity (relative to DMSO controls),[5],102.46%
same,remaining activity at 1 µM,[5]; [27],103%
same,% Enzyme Activity (relative to DMSO controls),[6],98.84%
same,remaining activity at 1 µM,[6]; [27],99%
same,% Enzyme Activity (relative to DMSO controls),[7],98.55%
same,remaining activity at 1 µM,[7]; [27],99.2%
same,% Enzyme Activity (relative to DMSO controls),[8],89.27%
same,remaining activity at 1 µM,[8]; [27],91.6%
same,% Enzyme Activity (relative to DMSO controls),[9],95.85%
same,remaining activity at 1 µM,[9]; [27],95.9%
same,% Enzyme Activity (relative to DMSO controls),[10],76.99%
same,remaining activity at 1 µM,[10]; [27],81.1%
same,% Enzyme Activity (relative to DMSO controls),[11],101.00%
same,remaining activity at 1 µM,[11]; [27],105%
same,% Enzyme Activity (relative to DMSO controls),[12],101.51%
same,remaining activity at 1 µM,[12]; [27],103%
same,% Enzyme Activity (relative to DMSO controls),[13],90.38%
same,remaining activity at 1 µM,[13]; [27],97.4%
same,% Enzyme Activity (relative to DMSO controls),[14],96.28%
same,remaining activity at 1 µM,[14]; [27],96.3%
same,% Enzyme Activity (relative to DMSO controls),[15],96.34%
same,remaining activity at 1 µM,[15]; [27],100%
same,% Enzyme Activity (relative to DMSO controls),[16],76.99%
same,remaining activity at 1 µM,[16]; [27],77.3%
same,% Enzyme Activity (relative to DMSO controls),[17],93.50%
same,remaining activity at 1 µM,[17]; [27],97.2%
same,% Enzyme Activity (relative to DMSO controls),[18],87.80%
same,remaining activity at 1 µM,[18]; [27],93.8%
same,% Enzyme Activity (relative to DMSO controls),[19],105.26%
same,remaining activity at 1 µM,[19]; [27],108%
same,% Enzyme Activity (relative to DMSO controls),[20],94.11%
same,remaining activity at 1 µM,[20]; [27],95.6%
same,% Enzyme Activity (relative to DMSO controls),[21],122.10%
same,remaining activity at 1 µM,[21]; [27],124%
same,% Enzyme Activity (relative to DMSO controls),[22],102.96%
same,remaining activity at 1 µM,[22]; [27],104%
same,% Enzyme Activity (relative to DMSO controls),[23],103.91%
same,remaining activity at 1 µM,[23]; [27],104%
same,% Enzyme Activity (relative to DMSO controls),[24],72.57%
same,remaining activity at 1 µM,[24]; [27],77.2%
same,% Enzyme Activity (relative to DMSO controls),[25],91.93%
same,remaining activity at 1 µM,[25]; [27],94%
same,% Enzyme Activity (relative to DMSO controls),[26],89.30%
same,remaining activity at 1 µM,[26]; [27],90.7%
